What was measured:
[1] = biological target: T1, angiotensin I-converting enzyme (Oryctolagus cuniculus, UniProt P12822); assay: Inhibition of angiotensin I-converting enzyme by spectrophotometry (HHL substrate); assay type: biochemical; details: enzyme from rabbit lung; 5 mM HHL; pH 8.3; 37° C., 30 min
T1 construct: angiotensin I-converting enzyme extracted from rabbit lung; from tissue; host or cells: rabbit lung
T1 sequence (P12822 34-1310): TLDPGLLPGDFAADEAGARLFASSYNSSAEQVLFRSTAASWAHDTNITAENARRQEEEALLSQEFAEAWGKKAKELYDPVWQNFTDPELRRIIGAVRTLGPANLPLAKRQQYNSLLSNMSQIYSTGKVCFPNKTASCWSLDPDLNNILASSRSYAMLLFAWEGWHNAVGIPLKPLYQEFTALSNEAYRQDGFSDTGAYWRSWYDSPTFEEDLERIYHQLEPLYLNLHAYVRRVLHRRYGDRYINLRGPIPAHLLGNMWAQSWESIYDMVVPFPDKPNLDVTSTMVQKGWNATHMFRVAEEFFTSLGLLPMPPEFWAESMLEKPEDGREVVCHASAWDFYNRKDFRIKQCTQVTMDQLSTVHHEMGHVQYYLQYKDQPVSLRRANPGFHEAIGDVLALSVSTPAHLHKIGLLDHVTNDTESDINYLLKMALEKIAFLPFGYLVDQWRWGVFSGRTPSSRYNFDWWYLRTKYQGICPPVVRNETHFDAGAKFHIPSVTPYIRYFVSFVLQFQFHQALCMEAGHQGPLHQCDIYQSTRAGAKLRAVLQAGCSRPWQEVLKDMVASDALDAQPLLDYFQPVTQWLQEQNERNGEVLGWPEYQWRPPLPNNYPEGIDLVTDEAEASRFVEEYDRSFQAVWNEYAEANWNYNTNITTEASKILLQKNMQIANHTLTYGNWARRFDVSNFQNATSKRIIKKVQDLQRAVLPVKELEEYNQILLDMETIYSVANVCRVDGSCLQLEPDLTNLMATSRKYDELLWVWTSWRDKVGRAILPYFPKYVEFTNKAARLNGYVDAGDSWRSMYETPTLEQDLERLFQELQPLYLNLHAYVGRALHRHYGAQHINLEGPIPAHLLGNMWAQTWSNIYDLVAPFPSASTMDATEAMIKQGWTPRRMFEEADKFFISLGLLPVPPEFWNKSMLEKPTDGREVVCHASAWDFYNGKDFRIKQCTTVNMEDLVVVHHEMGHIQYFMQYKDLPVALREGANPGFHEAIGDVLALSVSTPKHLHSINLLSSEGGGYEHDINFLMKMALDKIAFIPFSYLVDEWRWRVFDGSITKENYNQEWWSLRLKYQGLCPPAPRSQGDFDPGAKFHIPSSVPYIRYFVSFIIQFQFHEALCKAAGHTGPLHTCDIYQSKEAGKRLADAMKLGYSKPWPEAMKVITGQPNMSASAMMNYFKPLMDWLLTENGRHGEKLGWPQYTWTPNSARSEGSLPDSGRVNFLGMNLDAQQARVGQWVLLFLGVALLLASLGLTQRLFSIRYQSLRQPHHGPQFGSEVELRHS

[2] = tested on: pressor response to angiotensin I; assay: Inhibition of pressor response to angiotensin I in rats after oral administration; assay type: in vivo, rat (male Wistar); details: angiotensin I 300 ng/kg i.v.; for Inhibition (%) of pressor response to angiotensin I, 5 min / Inhibition (%) of pressor response to angiotensin I, 15 min / Inhibition (%) of pressor response to angiotensin I, 25 min / Inhibition (%) of pressor response to angiotensin I, 35 min / Inhibition (%) of pressor response to angiotensin I, 45 min / Inhibition (%) of pressor response to angiotensin I, 55 min / Inhibition (%) of pressor response to angiotensin I, 65 min / Inhibition (%) of pressor response to angiotensin I, 75 min / Inhibition (%) of pressor response to angiotensin I, 85 min: dose: 3, 45, 49 1.8 mg/kg, 4, 46 1.3, 50 1.4, 76 2.0, 77 1.5; for Inhibition (%) of pressor response to angiotensin I, 95 min: dose: 45, 49 1.8 mg/kg, 4, 46 1.3, 50 1.4, 76 2.0, 77 1.5; for Inhibition (%) of pressor response to angiotensin I, 105 min / Inhibition (%) of pressor response to angiotensin I, 115 min: dose: 45, 49 1.8 mg/kg, 46 1.3, 50 1.4, 76 2.0, 77 1.5
Method: Male Wistar strain rats weighing about 200-300 g were used.
Under ether anesthesia, polyethylene cannulae are inserted into carotid arthery and jugular vein. The cannula to carotid artery is connected to an electric transducer, while the cannula to jugular vein is connected to an apparatus for continuous infusion. After the complete recovery from anesthesia, angiotensin I is infused intravenously in a dose of 300 ng/kg by the apparatus for continuous infusion, and the pressor response is recorded by polygraph (Nihon Koden, RM-150).
The compounds of this invention suspended in 0.5% tragacanth solution are administered orally in a dose of 0.3 ml per 100 g of body weight, and the pressor response to angiotensin I infused intravenously is measured with time.
The inhibitory activity of the compounds against angiotensin I-converting enzyme is expressed as the percent inhibition of pressor response to angiotensin I.

[3] = tested on: contractile response to bradykinin (isolated guinea pig ileum); assay: Augmentation of contractile response of isolated guinea pig ileum to bradykinin; assay type: cell-based; details: Cavia porcellus, bradykinin 0.005 μg/ml; compound added 5 min before; 30° C.; read-out: Bradykinin AC50 (50% augmentation of bradykinin activity inducing the contraction of guinea pig ileum)

SMILES: C[C@H](CS)C(=O)N1C(c2ccccc2O)SC[C@H]1C(=O)O (stereo partly shown) [Compound 50]
- IC50 [1]: 220 nM
- Inhibition (%) of pressor response to angiotensin I, 5 min [2]: 11.1%
- Inhibition (%) of pressor response to angiotensin I, 15 min [2]: 22.7%
- Inhibition (%) of pressor response to angiotensin I, 25 min [2]: 37.6%
- Inhibition (%) of pressor response to angiotensin I, 35 min [2]: 43.9%
- Inhibition (%) of pressor response to angiotensin I, 45 min [2]: 52.6%
- Inhibition (%) of pressor response to angiotensin I, 55 min [2]: 31.7%
- Inhibition (%) of pressor response to angiotensin I, 65 min [2]: 28.1%
- Inhibition (%) of pressor response to angiotensin I, 75 min [2]: 30.5%
- Inhibition (%) of pressor response to angiotensin I, 85 min [2]: 24.3%
- Inhibition (%) of pressor response to angiotensin I, 95 min [2]: 21.1%
- Inhibition (%) of pressor response to angiotensin I, 105 min [2]: 21.7%
- Inhibition (%) of pressor response to angiotensin I, 115 min [2]: 21.5%
- AC50 [3]: 0.7 nM

SMILES: COc1ccc(C2SC[C@@H](C(=O)O)N2C(=O)[C@H](C)CS)c(O)c1 (stereo partly shown) [Compound 77]
- IC50 [1]: 190 nM
- Inhibition (%) of pressor response to angiotensin I, 5 min [2]: 35.0%
- Inhibition (%) of pressor response to angiotensin I, 15 min [2]: 45.0%
- Inhibition (%) of pressor response to angiotensin I, 25 min [2]: 54.2%
- Inhibition (%) of pressor response to angiotensin I, 35 min [2]: 50.8%
- Inhibition (%) of pressor response to angiotensin I, 45 min [2]: 57.2%
- Inhibition (%) of pressor response to angiotensin I, 55 min [2]: 49.2%
- Inhibition (%) of pressor response to angiotensin I, 65 min [2]: 47.8%
- Inhibition (%) of pressor response to angiotensin I, 75 min [2]: 34.8%
- Inhibition (%) of pressor response to angiotensin I, 85 min [2]: 31.7%
- Inhibition (%) of pressor response to angiotensin I, 95 min [2]: 24.2%
- Inhibition (%) of pressor response to angiotensin I, 105 min [2]: 18.7%
- Inhibition (%) of pressor response to angiotensin I, 115 min [2]: 6.7%
- AC50 [3]: 1.3 nM
